These are literature values, as cited in US20100004191A1, “Compositions of S-adenosyl-L-methionine” (priority 2008, published 2010).

Series [1] concerns alcoholic liver cirrhosis. To be noted: oral; patients with alcoholic liver cirrhosis; compared with placebo treated group.
Series [2] concerns beta-adrenergic. The conditions noted are these: L-form vs D-enantiomer.

As to `C[S+](CC[C@H](N)C(=O)[O-])C[C@H]1O[C@@H](n2cnc3c(N)ncnc32)[C@H](O)[C@@H]1O` (stereo partly drawn) [S-adenosyl-L-methionine], the “overall mortality and/or progression to liver transplant” value in series [1] is given as 29%.

On to `CC(C)NCC(O)COc1cccc2ccccc12` (centres unmarked) [propranolol], for which, in series [2], the “potency relative to the D-enantiomer” value is 100 times.
